Experimental findings from US11931335B2, “Enhancing autophagy or increasing longevity by administration of urolithins or precursors thereof” (Amazentis SA, priority 2012, dated 2024) are described below.

Assay [1] concerns aged C57BL/6J mice. In words: Locomotor activity by infrared detection in aged mice. To be noted: 50 mg/kg/day, 34 weeks, 12 hour dark period, FIG. 23. The class given is in vivo, mouse. As to the method:
Locomotor activity may be also assessed by measuring animal movements using infrared detection. To determine the effects of urolithin A on spontaneous locomotor activity in aged animals, 16-month-old C57BL/6J mice were treated with either a standard rodent diet or a diet containing urolithin A mixed with food to reach a dosing of 50 mg/kg/day delivered to mice. Following 34 weeks of treatment with urolithin A, mice were placed in a locomotor activity monitoring system, TSE Systems. Infrared transmitters and receivers are placed in the x, y, and z axis. Interruption of the infrared beams in the x, y axis by the passage of the mouse, allows for a measurement of the horizontal movement (ambulation). Interruption of the infrared beams in the z axis by the mouse, allows for the measurement of rearing behavior. Each beam interruption results in one count being recorded. Total counts were measured for each 30 minute period over a two day period. The total counts observed during the 12 hour dark period, which corresponds to the time of highest activity in mice, were summed for each animal.

For assay [2], the system named is human primary skeletal muscle cells. In words: Autophagy western blot in human primary myoblasts. Format: cell-based. As to conditions: 10 μM, 20 μM, and 50 μM, 16 hours. As to the method: Human primary skeletal myocytes were cultured in vitro and exposed to increasing concentrations of urolithin A, including 10 μM, 20 μM, and 50 μM for 16 hours. Human skeletal myoblasts were grown in DMEM plus 2% horse serum. Control cells were treated with DMSO at an equivalent final concentration for the same period and served as the untreated control.
At the end of treatment, cells were lysed with RIPA buffer and applied to SDS-PAGE and analyzed by western blot. Protein expression levels were examined for autophagy-related proteins LC3-I and LC3-II (Cell Signaling antibody #4108), p62 (Cell Signaling antibody #5114), AMPKα (Cell Signaling antibody #2603), and p-AMPKα(Cell Signaling antibody #2531). The housekeeping protein, R-actin (Cell Signaling Antibody #4967) level was measured as a loading control.

Assay [3] relates to sir-2.1(ok434) mutant C. elegans. Kind of assay: Lifespan assay, sir-2.1 mutant C. elegans. Format: in vivo. As to the method:
(§1) Lifespan assays were performed with (A) wild-type (N2), (B) sir-2.1(ok434) mutant, (C) aak-2(ok524), (D) daf-16(mu86), (E) eat-2(ad465) and (F) daf-2(e1370) mutant strains of C. elegans maintained during their full life on plates supplemented with either 50 μM of urolithin A or with a control treatment and seeded with OP50 bacteria. Control plates without urolithin A contained an equivalent concentration of DMSO. Worm lifespan assays were performed at 20° C.
sir-2.1: sir-2.1 encodes the mammalian homolog of the NAD-dependent deacetylase SIRT1 in C. elegans. SIR-2.1/SIRT1 activity is mediated by NAD^+ level and is well described to be involved in longevity regulation in yeast, C. elegans, and Drosophila in response to caloric restriction.

In assay [4] the test system is daf-2(e1370) mutant C. elegans. Format: in vivo. As to the method: as §1
daf-2 encodes for the insulin-like growth factor 1 (IGF-1) receptor in C. elegans.

Assay [5] relates to C57BL/6J mice. In words: Spontaneous running wheel activity in young mice. Format: in vivo, mouse. To be noted: for increase over untreated controls in the cumulative distance covered: 55 mg/kg/day in food, 11 weeks. As to the method:
To examine the effect of urolithin A treatment on activity and muscle function in mammals, 10-week-old C57BL/6J mice were treated with either a standard rodent diet or a diet containing urolithin A mixed with food to reach a dosing of 55 mg/kg/day delivered to the mice. Following 11 weeks of treatment with urolithin A, a 23 cm in diameter running wheel was placed in the cage of each mouse. Spontaneous exercise activity was measured over a five day period at 20 min intervals, allowing the capture of the circadian rhythm of the exercise activity.

In assay [6] the test system is Human Aortic Endothelial Cells (HAOEC). In words: Autophagy western blot in human aortic endothelial cells. The class given is cell-based. To be noted: 16 hours. As to the method: Human Aortic Endothelial Cells (HAOEC) are primary endothelial cells isolated from normal human aorta. They were sourced from Cell Applications Inc. (CAI), San Diego, USA and obtained cryopreserved at the second passage from the European Collection of Cell Cultures (ECACC). The cells were thawed and cultured with Endothelial Cell Growth Medium, provided by the ECACC, catalog number 06091509 (CAI No. 211-500), in a 37° C., 5% CO2 humidified incubator; media was changed 24 hours after thawing. Endothelial Cell Growth Medium was changed every other day until the cells reached 80% confluency. Cells were then subcultured into four 6-well dishes and after overnight incubation were treated with different concentrations of urolithin A, 10 μM, 20 μM, and 50 μM, or a DMSO control for a period of 16 hours, 3 wells per treatment. Control cells were treated with DMSO at an equivalent final concentration for the same period and served as the untreated control.
At the end of treatment, cells were lysed with RIPA buffer and applied to SDS-PAGE and analyzed by western blot. Protein expression levels were examined for autophagy-related proteins LC3-I and LC3-II (Cell Signaling antibody #4108), and p62 (Cell Signaling antibody #5114). The housekeeping protein, HSP90 (BD Transduction Laboratories antibody #610418) level was measured as a loading control.

In assay [7] the test system is C. elegans wild type (N2, Bristol). Kind of assay: Mobility tracking of C. elegans during aging. The class given is in vivo. To be noted: days 1, 3, 5 and 8 of adulthood; 50 μM; FIG. 12. As to the method: To examine the effect of urolithins on muscle activity during aging, C. elegans mobility was examined over time. Synchronized populations of wild-type nematodes were prepared by standard methods and cultivated at 20° C. on NGM agar containing E. Coli (OP50) with or without test compounds (ellagic acid (EA), urolithins A (UA), and B (UB)). At Day 0, five plates were prepared, each containing 10 young adult worms. Worms were assayed for mobility at different ages, day 1, 3, 5 and 8 of adulthood. The wild type (N2, Bristol) worm strain was employed for these studies.
For C. elegans movement tracking, 45 seconds of video were recorded using a Nikon DS-L2/DS-Fi1 camera and controller setup, attached to both a computer and a standard bright field microscope, tracking an entire plate of 10 worms, with 5 plates per condition. The movement of worms during this time was calculated using an adapted version of the freely-available software Parallel Worm Tracker for MATLAB. The total movement over the 45 second tracking was averaged across all worms for each condition. This experiment was repeated twice with between 40 and 70 worms per condition.

Each structure is given as a SMILES string. Bounds are passed on as bounds.

As to `O=c1oc2cc(O)ccc2c2ccc(O)cc12` [Urolithin A, urolithin A], the increase in ambulation in assay [1] is given as 14%. The increase in rearing in assay [1] amounted to 25%. Also, the “levels of p62” value in assay [2] is given as “decrease”; in assay [6] (10 μM, 20 μM, and 50 μM) it was “decrease”. The “ratio of pAMPKα/AMPKα” value in assay [2] is “increasing several fold”. Besides, the “ratio of LC3-II to LC3-I” value in assay [2] (FIG. 17) was “dose-dependent increase”. Further, the “Median lifespan” value in assay [3] (sir-2.1(ok434), 50 μM UA) was 23 days; in assay [4] (daf-2, 50 μM UA), 48 days. Also, the “Lifespan extension compared to control (%)” value in assay [3] (sir-2.1(ok434), 50 μM UA vs 1% DMSO) is on record as “+9.5%”; in assay [4] (daf-2, 50 μM UA vs 1% DMSO) it was “+14.2%”. Further, the “activity of urolithin A on the extension of median lifespan” value in assay [3] (sir-2.1 mutant) and in assay [4] (daf-2 mutant) was “completely suppressed” each time. The “increase over untreated controls in the cumulative distance covered” value in assay [5] (final two days) was 29%; in assay [5] (initial 3 days, FIG. 20), 25%. Besides, in assay [5] (55 mg/kg/day, five-day period, FIG. 20), the “increase in spontaneous voluntary running on a running wheel” value was “at least 25%”. The “ratio of LC3-II to LC3-I, induction” value in assay [6] (50 μM of urolithin A, FIG. 18) is recorded as at most 3 fold. Also, the “age related mobility decline” value in assay [7] was “marked ability to reduce muscle function decline”.
